Source: ChEMBL document CHEMBL1125158, “A model for compounds active against human rhinovirus-14 based on X-ray crystallography data” (1990)
Values after ≈ are worked out from the molar mass of the structure shown. Active and inactive are the calls of the source. The rule behind the calls is not given here.

test system: rhinovirus B14; experiment: In vitro inhibitory activity against human rhinovirus-14 was determined; assay type: functional; conditions: Rhinovirus B

MIC [µM]	SMILES
1.27 (≈ 0.399 µg/mL)	Cc1cc(CCCCCOc2ccc(C3=NCCO3)cc2)on1

test system: rhinovirus B14; experiment: In vitro minimum inhibitory concentration for the inhibition of human rhinovirus-14 replication.; assay type: functional; conditions: not given

MIC	SMILES
inactive	Cc1cc(CCCCOc2ccc(C3=NCCO3)cc2)on1

same assay, conditions: Rhinovirus B

SMILES	MIC [µM]
Cc1cc(CCCCCCOc2ccc(C3=NCCO3)cc2Cl)on1	3.86 (≈ 1.4 µg/mL)
Cc1cc(CCCCCCCCOc2ccc(C3=NCCO3)cc2)on1	3.92 (≈ 1.4 µg/mL)
Cc1cc(CCCCCCCCOc2ccc(C3=NCCO3)cc2Cl)on1	14.3 (≈ 5.6 µg/mL)
Cc1cc(CCCCOc2ccc(C3=NCCO3)cc2Cl)on1	9.2 (≈ 3.08 µg/mL)

Other lines, results leading:

MIC [µM]	SMILES
0.16 (≈ 0.0596 µg/mL)	Cc1cc(CCCCCCCOc2ccc(C3=NC(CO)CO3)cc2)on1 (centres undefined)
0.56 (≈ 0.2 µg/mL)	CCCCc1cc(CCCCCOc2ccc(C3=NCCO3)cc2)on1
0.41 (≈ 0.14 µg/mL)	Cc1cc(CCCCCCCOc2ccc(C3=NCCO3)cc2)on1 [DISOXARIL]
0.06 (≈ 0.0301 µg/mL)	OCCOCOCc1cc(CCCCCCCOc2c(Cl)cc(C3=NCCO3)cc2Cl)on1
2.9 (≈ 0.952 µg/mL)	Cc1cc(CCCCCCOc2ccc(C3=NCCO3)cc2)on1
0.43 (≈ 0.141 µg/mL)	CCc1cc(CCCCCOc2ccc(C3=NCCO3)cc2)on1
0.05 (≈ 0.0178 µg/mL)	Cc1cc(CCCCCCCOc2ccc(C3=NC(C)CO3)cc2)on1 (centres undefined)
0.51 (≈ 0.16 µg/mL)	Cc1cc(CCCCCOc2ccc(C3=NCCO3)cc2)on1
0.14 (≈ 0.0499 µg/mL)	Cc1cc(CCCCCOc2ccc(-c3nc(C)c(C)s3)cc2)on1
0.7 (≈ 0.23 µg/mL)	Cc1cc(CCCCCOc2ccc(C3=NC(C)CO3)cc2)on1 (centres undefined)
1.06 (≈ 0.399 µg/mL)	Cc1cc(CCCCCCCOc2ccc(C3=NCCO3)cc2Cl)on1
2.41 (≈ 0.841 µg/mL)	Cc1cc(CCCCCOc2ccc(C3=NCCO3)cc2Cl)on1
0.16 (≈ 0.0593 µg/mL)	Cc1cc(CCCCCCCOc2ccc(C3=NC(C)(C)CO3)cc2)on1
2.4 (≈ 0.938 µg/mL)	Cc1cc(CCCCCCCOc2ccc(C3=NC(C)CO3)cc2Cl)on1 (centres undefined)
0.023 (≈ 0.00852 µg/mL)	CC[C@H]1COC(c2ccc(OCCCCCCCc3cc(C)no3)cc2)=N1
0.16 (≈ 0.0548 µg/mL)	CCCc1cc(CCCCCOc2ccc(C3=NCCO3)cc2)on1

test system: rhinovirus B14; experiment: In vitro minimum inhibitory concentration for the inhibition of human rhinovirus-14 (HRV-14) replication by binding to viral capsid; NA= inactive at the 10 umol.; assay type: functional, organism-based; conditions: not given

SMILES	MIC
CCc1cc(C2=NCCO2)cc(C)c1OCCCCCc1cc(C)no1	inactive
Cc1cc(CCCCCOc2c(Cl)cc(C3=NCCO3)cc2C(C)(C)C)on1	inactive
Cc1cc(CCCCCOc2c(Cl)cc(-c3cnco3)cc2Cl)on1	inactive
Cc1cc(CCCCCOc2c(Cl)cc(-c3ccoc3)cc2Cl)on1	inactive
Cc1cc(CCCCCOc2ccc(C3=NCCO3)cc2N(C)C)on1	inactive
Cc1cc(CCCCCOc2c(C)cc(-c3ccco3)cc2C)on1	inactive
Cc1cc(CCCCCOc2c(C)cc(-c3ccoc3)cc2C)on1	inactive
